pIC50: −log10 of the molar value. Like-named read-outs stand apart in the source and are kept apart here.
Tests used:
FAK [1] = molecular target: T1, FAK (Homo sapiens, UniProt Q05397); experiment: FAK degradation by immunoblot in H3122 cells; assay type: cell-based; parameters: endogenous in cells; host or cells: H3122; settings: 10 nM to 1000 nM, 16 hours (compound 10) or 24 hours (compounds 1, 9)
FAK [2] = molecular target: T1, FAK; experiment: FAK degradation by immunoblot in PA-TU-8988T cells; assay type: cell-based; parameters: endogenous in cells; host or cells: PA-TU-8988T; settings: for Degradation of FAK protein (in words): 0.1 nM to 1000 nM; for Degradation of FAK protein (in words) / Concentration at which degradation of FAK protein is evident / Concentration of maximal degradation of FAK protein / Concentration giving modest degradation of FAK protein: immunoblot; for inhibition at 0.01 µM / inhibition at 0.1 µM: PaTu 8988t; for inhibition at 0.01 µM: read-out: Degradation at 10 nM; for inhibition at 0.1 µM: read-out: Degradation at 100 nM
Experimental: (§1) Immunoblotting for FAK was performed to evaluate changes in protein levels upon FAK degrader treatment. All samples were run with equal total protein content and immunoblotting was performed using antibodies that detect total FAK protein as well as GAPDH or α-Tubulin as a loading control. Fluorescently labelled infrared secondary antibodies that enable detection using an Odyssey® CLx Imager was employed to evaluate protein levels.
FAK degraders were evaluated in immunoblot assays to determine the effective dose required to achieve FAK protein loss. Immunoblots for FAK protein were normalized relative to the loading control and percent degradation was evaluated compared to DMSO treatment.

ALK [3] = molecular target: T2, ALK (Homo sapiens, UniProt Q9UM73); experiment: ALK degradation by immunoblot in H3122 cells; assay type: cell-based; parameters: endogenous in cells; host or cells: H3122; the other entry of the earlier key: EML4 (Q9HC35, Echinoderm microtubule-associated protein-like 4); settings: 10 nM to 1000 nM, 16 hours (compound 10) or 24 hours (compounds 1, 9)
Target sequence in this assay (Q9UM73 with tags, fused parts or gaps): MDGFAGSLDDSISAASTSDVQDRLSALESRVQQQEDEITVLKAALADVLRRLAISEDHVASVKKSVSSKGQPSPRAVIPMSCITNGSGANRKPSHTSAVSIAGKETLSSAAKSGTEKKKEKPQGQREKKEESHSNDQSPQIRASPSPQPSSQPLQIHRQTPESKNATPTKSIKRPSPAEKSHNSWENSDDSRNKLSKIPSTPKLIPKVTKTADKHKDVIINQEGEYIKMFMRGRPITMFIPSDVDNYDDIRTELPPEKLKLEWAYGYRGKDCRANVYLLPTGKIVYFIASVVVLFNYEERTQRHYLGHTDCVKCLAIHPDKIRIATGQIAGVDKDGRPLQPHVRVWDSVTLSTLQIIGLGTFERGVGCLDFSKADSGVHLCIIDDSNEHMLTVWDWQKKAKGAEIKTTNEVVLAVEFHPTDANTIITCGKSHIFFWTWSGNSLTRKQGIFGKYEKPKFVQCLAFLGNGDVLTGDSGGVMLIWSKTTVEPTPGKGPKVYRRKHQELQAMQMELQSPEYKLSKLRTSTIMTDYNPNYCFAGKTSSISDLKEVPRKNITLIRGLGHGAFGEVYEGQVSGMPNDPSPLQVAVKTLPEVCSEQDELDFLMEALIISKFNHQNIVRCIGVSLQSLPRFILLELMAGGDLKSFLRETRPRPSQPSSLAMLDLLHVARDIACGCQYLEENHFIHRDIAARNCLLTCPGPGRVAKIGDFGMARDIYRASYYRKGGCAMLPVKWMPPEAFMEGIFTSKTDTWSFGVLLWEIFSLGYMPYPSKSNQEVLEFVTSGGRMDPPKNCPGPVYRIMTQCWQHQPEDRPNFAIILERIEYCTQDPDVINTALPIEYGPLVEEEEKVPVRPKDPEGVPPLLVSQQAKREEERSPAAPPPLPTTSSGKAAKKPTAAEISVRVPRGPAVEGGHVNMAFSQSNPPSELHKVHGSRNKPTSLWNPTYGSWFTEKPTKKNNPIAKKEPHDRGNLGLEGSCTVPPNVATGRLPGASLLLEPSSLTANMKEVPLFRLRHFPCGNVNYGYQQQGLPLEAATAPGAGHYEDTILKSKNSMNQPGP
Target sequence in this assay (Q96SW2 whole entry partner): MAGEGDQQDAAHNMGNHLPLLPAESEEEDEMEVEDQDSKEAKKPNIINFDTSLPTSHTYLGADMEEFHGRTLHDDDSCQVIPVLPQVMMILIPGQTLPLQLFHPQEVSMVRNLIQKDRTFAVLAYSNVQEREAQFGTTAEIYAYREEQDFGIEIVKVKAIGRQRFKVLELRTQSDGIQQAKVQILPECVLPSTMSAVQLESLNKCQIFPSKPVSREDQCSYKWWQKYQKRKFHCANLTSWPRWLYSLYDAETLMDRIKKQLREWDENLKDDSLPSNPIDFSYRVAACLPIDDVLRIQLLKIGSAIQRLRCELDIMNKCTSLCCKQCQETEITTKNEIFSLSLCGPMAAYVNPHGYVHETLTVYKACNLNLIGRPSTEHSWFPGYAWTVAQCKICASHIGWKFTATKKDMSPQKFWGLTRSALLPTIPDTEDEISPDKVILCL

ALK [4] = molecular target: T2, ALK; experiment: In vitro kinase assay (Life Technologies), ALK; parameters: purchased Life Technologies; settings: ATP concentration = Km, duplicate; read-out: Biochemical IC50 ALK
Experimental: (§2) In vitro kinase assays with inventive compound 13 and VS-4718 were performed by Life Technologies™ in duplicate at an ATP concentration=Km for each indicated kinase. The results are summarized in Table 2 and indicate that inventive compound 13 maintained potent FAK activity, with improved activity on ALK as compared to VS-4718.
Target sequence in this assay (Q9UM73 19-1620): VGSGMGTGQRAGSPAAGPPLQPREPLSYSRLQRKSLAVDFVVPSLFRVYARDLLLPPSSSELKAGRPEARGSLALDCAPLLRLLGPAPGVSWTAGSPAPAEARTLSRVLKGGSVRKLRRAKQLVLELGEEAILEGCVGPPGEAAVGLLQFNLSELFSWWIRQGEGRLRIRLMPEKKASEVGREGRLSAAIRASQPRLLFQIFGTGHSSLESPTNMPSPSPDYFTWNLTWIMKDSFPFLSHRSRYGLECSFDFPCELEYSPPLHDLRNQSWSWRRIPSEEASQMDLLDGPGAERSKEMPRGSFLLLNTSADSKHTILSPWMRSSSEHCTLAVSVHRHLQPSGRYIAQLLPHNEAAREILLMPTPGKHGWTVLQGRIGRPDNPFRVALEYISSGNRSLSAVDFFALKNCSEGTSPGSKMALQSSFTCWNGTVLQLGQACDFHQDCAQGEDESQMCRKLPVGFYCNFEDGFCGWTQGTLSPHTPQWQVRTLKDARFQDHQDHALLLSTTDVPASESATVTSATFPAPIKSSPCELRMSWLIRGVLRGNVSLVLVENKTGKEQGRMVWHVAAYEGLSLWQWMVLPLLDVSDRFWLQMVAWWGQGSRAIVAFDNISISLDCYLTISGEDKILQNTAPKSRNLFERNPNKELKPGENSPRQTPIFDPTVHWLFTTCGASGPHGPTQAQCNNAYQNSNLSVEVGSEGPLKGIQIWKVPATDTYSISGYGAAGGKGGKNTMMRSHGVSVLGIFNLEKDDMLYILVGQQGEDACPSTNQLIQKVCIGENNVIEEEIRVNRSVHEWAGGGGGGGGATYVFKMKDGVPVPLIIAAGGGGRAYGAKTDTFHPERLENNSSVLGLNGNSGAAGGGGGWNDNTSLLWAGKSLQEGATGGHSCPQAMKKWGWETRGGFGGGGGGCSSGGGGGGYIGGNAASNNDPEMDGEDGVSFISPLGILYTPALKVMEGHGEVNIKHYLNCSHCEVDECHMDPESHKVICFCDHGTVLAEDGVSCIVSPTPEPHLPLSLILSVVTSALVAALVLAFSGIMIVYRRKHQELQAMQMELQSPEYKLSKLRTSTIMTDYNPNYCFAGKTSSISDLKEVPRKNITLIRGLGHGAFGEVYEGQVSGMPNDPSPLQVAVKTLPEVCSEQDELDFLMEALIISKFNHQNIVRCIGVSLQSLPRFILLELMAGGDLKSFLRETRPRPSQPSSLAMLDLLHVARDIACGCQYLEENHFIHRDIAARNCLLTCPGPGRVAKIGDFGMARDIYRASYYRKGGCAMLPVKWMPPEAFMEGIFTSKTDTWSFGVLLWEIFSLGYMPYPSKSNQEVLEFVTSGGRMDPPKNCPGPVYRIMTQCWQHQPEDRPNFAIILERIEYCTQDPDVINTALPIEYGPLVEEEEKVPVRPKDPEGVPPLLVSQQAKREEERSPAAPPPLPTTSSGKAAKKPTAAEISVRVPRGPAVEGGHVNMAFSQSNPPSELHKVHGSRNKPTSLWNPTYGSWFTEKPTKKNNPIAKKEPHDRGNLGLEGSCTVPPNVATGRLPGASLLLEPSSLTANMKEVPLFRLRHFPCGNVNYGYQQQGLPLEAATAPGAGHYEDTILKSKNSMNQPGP

FAK [5] = molecular target: T1, FAK; experiment: In vitro kinase assay (Life Technologies), FAK; settings: ATP concentration = Km, duplicate; read-out: Biochemical IC50 FAK
Experimental: as §2

FAK [6] = molecular target: T1, FAK; experiment: Rescue of compound 9-induced FAK degradation in PA-TU-8988T cells after pre-treatment; assay type: cell-based; parameters: endogenous in cells; host or cells: PA-TU-8988T; settings: pre-treatment 2 hours (0.5 μM carfilzomib, 1.0 μM MLN4924, 10 μM lenalidomide, 10 μM compound 13), then 10 nM compound 9 for 4 hours
Experimental: as §1, with “PA-TU-8988T cells were treated with FAK degraders or indicated inhibitors for four hours at the indicated doses. After four hours, PA-TU-8988T cells were lysed in radioimmunoprecipitation assay (RIPA) buffer (Thermo Scientific™) on ice for 60 minutes and lysates were clarified by centrifugation. Immunoblotting” for “Immunoblotting”

[7] = total FAK protein, PA-TU-8988T cells, 10 nM, 4 hours, vs DMSO
[8] = total FAK protein, PA-TU-8988T cells, 100 nM, 4 hours, vs DMSO

T1 sequence (Q05397 whole entry): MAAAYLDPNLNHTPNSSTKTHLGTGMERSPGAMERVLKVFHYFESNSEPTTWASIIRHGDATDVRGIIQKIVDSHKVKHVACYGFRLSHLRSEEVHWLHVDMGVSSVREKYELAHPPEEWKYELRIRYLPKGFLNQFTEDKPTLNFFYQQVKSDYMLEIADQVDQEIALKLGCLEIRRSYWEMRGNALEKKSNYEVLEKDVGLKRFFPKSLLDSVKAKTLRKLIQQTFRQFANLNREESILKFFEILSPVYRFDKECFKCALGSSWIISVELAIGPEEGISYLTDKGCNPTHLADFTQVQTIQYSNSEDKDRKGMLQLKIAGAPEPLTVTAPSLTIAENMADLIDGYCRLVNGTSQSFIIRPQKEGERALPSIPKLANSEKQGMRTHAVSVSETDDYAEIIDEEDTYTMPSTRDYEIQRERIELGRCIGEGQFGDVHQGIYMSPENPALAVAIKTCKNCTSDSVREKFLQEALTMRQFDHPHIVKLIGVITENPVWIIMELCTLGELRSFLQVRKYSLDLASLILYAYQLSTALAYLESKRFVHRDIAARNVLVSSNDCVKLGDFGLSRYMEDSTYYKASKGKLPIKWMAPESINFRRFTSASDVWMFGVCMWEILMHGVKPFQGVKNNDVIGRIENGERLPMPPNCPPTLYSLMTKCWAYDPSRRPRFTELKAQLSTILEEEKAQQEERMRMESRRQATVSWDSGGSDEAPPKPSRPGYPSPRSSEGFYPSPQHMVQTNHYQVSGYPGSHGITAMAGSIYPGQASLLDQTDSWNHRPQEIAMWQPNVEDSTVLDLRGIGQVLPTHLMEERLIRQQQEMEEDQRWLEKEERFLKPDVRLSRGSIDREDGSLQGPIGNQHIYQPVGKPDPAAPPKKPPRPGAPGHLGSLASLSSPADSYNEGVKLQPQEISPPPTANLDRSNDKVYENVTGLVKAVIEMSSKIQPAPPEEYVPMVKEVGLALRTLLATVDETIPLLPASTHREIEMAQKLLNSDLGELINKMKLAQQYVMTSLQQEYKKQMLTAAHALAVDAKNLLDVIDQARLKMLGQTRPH

| Molecule | Concentration at which degradation of FAK protein is evident (FAK [2]; PA-TU-8988T cells, 4 hours) | Concentration of maximal degradation of FAK protein (FAK [2]; PA-TU-8988T cells, 4 hours) | inhibition at 0.01 µM (FAK [2]; [7]) | inhibition at 0.1 µM (FAK [2]; [8]) | further results |
| --- | --- | --- | --- | --- | --- |
| CNC(=O)c1ccccc1Nc1cc(Nc2ccc(N3CCN(CCCCCCNC(=O)COc4cccc5c4C(=O)N(C4CCC(=O)NC4=O)C5=O)CC3)cc2OC)ncc1C(F)(F)F (stereo not drawn) [Compound 1, 2-((2-((4-(4-(6-(2-((2-(2,6-dioxopiperidin-3-yl)-1,3-dioxoisoindolin-4-yl)oxy)acetamido)hexyl)piperazin-1-yl)-2-methoxyphenyl)amino)-5-(trifluoromethyl)pyridin-4-yl)amino)-N-methylbenzamide] | 1 nM | 10 nM | 85 to 100% | 85 to 100% | Degradation of FAK protein in H3122 cells (in words) (FAK [1]): pronounced degradation of FAK protein; Degradation of FAK protein (in words) (FAK [2]; PA-TU-8988T cells, 4 hours): rapid and pronounced degradation of FAK protein |
| CNC(=O)c1ccccc1Nc1nc(Nc2cc(C)c(C3CCN(CCCCCCNC(=O)COc4cccc5c4C(=O)N(C4CCC(=O)NC4=O)C5=O)CC3)cc2OC(C)C)ncc1C(F)(F)F (stereo not drawn) [Compound 10, 2-((2-((4-(1-(6-(2-((2-(2,6-dioxopiperidin-3-yl)-1,3-dioxoisoindolin-4-yl)oxy)acetamido)hexyl)piperidin-4-yl)-2-isopropoxy-5-methylphenyl)amino)-5-(trifluoromethyl)pyrimidin-4-yl)amino)-N-methylbenzamide] |  |  |  |  | Degradation of FAK protein in H3122 cells (in words) (FAK [1]): pronounced degradation of FAK protein; Degradation of ALK protein in H3122 cells (in words) (ALK [3]): degradation of ALK protein |
| CNC(=O)c1ccccc1Nc1cc(Nc2ccc(N3CCOCC3)cc2OC)ncc1C(F)(F)F [VS-4718, reference compound] |  |  |  |  | pIC50 (ALK [4]): 7.39; pIC50 (FAK [5]): 7.70; Degradation of FAK protein (in words) (FAK [2]; PA-TU-8988T cells, 4 hours): did not induce degradation of FAK protein |
| PF-573228 [reference compound] |  |  |  |  | Degradation of FAK protein (in words) (FAK [2]; PA-TU-8988T cells, 4 hours): did not induce degradation of FAK protein |
| Nc1cccc2c1CN(C1CCC(=O)NC1=O)C2=O (stereo not drawn) [lenalidomide] |  |  |  |  | Rescue of FAK degradation induced by compound 9 (FAK [6]): rescued the degradation induced by compound 9 |
| CC(C)C[C@H](NC(=O)[C@H](CCc1ccccc1)NC(=O)CN1CCOCC1)C(=O)N[C@@H](Cc1ccccc1)C(=O)N[C@@H](CC(C)C)C(=O)[C@@]1(C)CO1 [carfilzomib] |  |  |  |  | Rescue of FAK degradation induced by compound 9 (FAK [6]): rescued the degradation induced by compound 9 |
| NS(=O)(=O)OC[C@@H]1C[C@@H](n2ccc3c(N[C@H]4CCc5ccccc54)ncnc32)C[C@@H]1O [MLN4924] |  |  |  |  | Rescue of FAK degradation induced by compound 9 (FAK [6]): rescued the degradation induced by compound 9 |
| CS(=O)(=O)c1cccc(CNc2nc(Nc3ccc(C(=O)N4CCN(CCCCCNC(=O)COc5cccc6c5C(=O)N(C5CCC(=O)NC5=O)C6=O)CC4)cc3)ncc2C(F)(F)F)c1 (stereo not drawn) [Compound 8, 2-((2-(2,6-dioxopiperidin-3-yl)-1,3-dioxoisoindolin-4-yl)oxy)-N-(5-(4-(4-((4-((3-(methylsulfonyl)benzyl)amino)-5-(trifluoromethyl)pyrimidin-2-yl)amino)benzoyl)piperazin-1-yl)pentyl)acetamide] |  | 100 nM |  |  | Concentration giving modest degradation of FAK protein (FAK [2]; PA-TU-8988T cells, 4 hours): 10 nM; inhibition at 0.01 µM (FAK [2]; 4 h): 0 to 24%; inhibition at 0.1 µM (FAK [2]; 4 h): 25 to 49% |

Further lines, with some results ahead:

| Concentration at which degradation of FAK protein is evident (FAK [2]; PA-TU-8988T cells, 4 hours) | Concentration of maximal degradation of FAK protein (FAK [2]; PA-TU-8988T cells, 4 hours) | inhibition at 0.01 µM (FAK [2]; [7]) | inhibition at 0.1 µM (FAK [2]; [8]) | Molecule | further results |
| --- | --- | --- | --- | --- | --- |
| 10 nM | 100 nM | 85 to 100% | 85 to 100% | CNC(=O)c1ccccc1Nc1cc(Nc2ccc(N3CCN(CCCCCCCCNc4cccc5c4C(=O)N(C4CCC(=O)NC4=O)C5=O)CC3)cc2OC)ncc1C(F)(F)F (stereo not drawn) [Compound 6, 2-((2-((4-(4-(8-((2-(2,6-dioxopiperidin-3-yl)-1,3-dioxoisoindolin-4-yl)amino)octyl)piperazin-1-yl)-2-methoxyphenyl)amino)-5-(trifluoromethyl)pyridin-4-yl)amino)-N-methylbenzamide] |  |
| 10 nM | 100 nM | 25 to 49% | 85 to 100% | CS(=O)(=O)c1cccc(CNc2nc(Nc3ccc(C(=O)NCCCCCCCCNC(=O)COc4cccc5c4C(=O)N(C4CCC(=O)NC4=O)C5=O)cc3)ncc2C(F)(F)F)c1 (stereo not drawn) [Compound 7, N-(8-(2-((2-(2,6-dioxopiperidin-3-yl)-1,3-dioxoisoindolin-4-yl)oxy)acetamido)octyl)-4-((4-((3-(methylsulfonyl)benzyl)amino)-5-(trifluoromethyl)pyrimidin-2-yl)amino)benzamide] |  |
| 1 nM | 10 nM |  |  | CNC(=O)c1ccccc1Nc1cc(Nc2ccc(N3CCN(CCCCCCCCNC(=O)CNc4cccc5c4C(=O)N(C4CCC(=O)NC4=O)C5=O)CC3)cc2OC)ncc1C(F)(F)F (stereo not drawn) [Compound 5, 2-((2-((4-(4-(8-(2-((2-(2,6-dioxopiperidin-3-yl)-1,3-dioxoisoindolin-4-yl)amino)acetamido)octyl)piperazin-1-yl)-2-methoxyphenyl)amino)-5-(trifluoromethyl)pyridin-4-yl)amino)-N-methylbenzamide] |  |
| 10 nM | 100 nM | 70 to 84% | 85 to 100% | CNC(=O)c1ccccc1Nc1cc(Nc2ccc(N3CCN(CCOCCOCCNC(=O)CNc4cccc5c4C(=O)N(C4CCC(=O)NC4=O)C5=O)CC3)cc2OC)ncc1C(F)(F)F (stereo not drawn) [Compound 4, 2-((2-((4-(4-(2-(2-(2-(2-((2-(2,6-dioxopiperidin-3-yl)-1,3-dioxoisoindolin-4-yl)amino)acetamido)ethoxy)ethoxy)ethyl)piperazin-1-yl)-2-methoxyphenyl)amino)-5-(trifluoromethyl)pyridin-4-yl)amino)-N-methylbenzamide] |  |
|  |  | 50 to 69% | 85 to 100% | CNC(=O)c1ccccc1Nc1cc(Nc2ccc(N3CCN(CCOCCOCCOCCNC(=O)COc4cccc5c4C(=O)N(C4CCC(=O)NC4=O)C5=O)CC3)cc2OC)ncc1C(F)(F)F (stereo not drawn) [Compound 3, 2-((2-((4-(4-(1-((2-(2,6-dioxopiperidin-3-yl)-1,3-dioxoisoindolin-4-yl)oxy)-2-oxo-6,9,12-trioxa-3-azatetradecan-14-yl)piperazin-1-yl)-2-methoxyphenyl)amino)-5-(trifluoromethyl)pyridin-4-yl)amino)-N-methylbenzamide] | Concentration giving modest degradation of FAK protein (FAK [2]; PA-TU-8988T cells, 4 hours): 100 nM |
|  |  | 0 to 24% | 0 to 24% | CNC(=O)c1ccccc1Nc1cc(Nc2ccc(N3CCN(CCCCCCNC(=O)COc4cccc5c4C(=O)N(C4CCC(=O)N(C)C4=O)C5=O)CC3)cc2OC)ncc1C(F)(F)F (stereo not drawn) [Compound 2, 2-((2-((2-methoxy-4-(4-(6-(2-((2-(1-methyl-2,6-dioxopiperidin-3-yl)-1,3-dioxoisoindolin-4-yl)oxy)acetamido)hexyl)piperazin-1-yl)phenyl)amino)-5-(trifluoromethyl)pyridin-4-yl)amino)-N-methylbenzamide] | Degradation of FAK protein (in words) (FAK [2]; PA-TU-8988T cells, 4 hours): did not induce degradation of FAK protein |

From US12653894B2, “Degradation of FAK or FAK and ALK by conjugation of FAK and ALK inhibitors with E3 ligase ligands and methods of use” (DANA-FARBER CANCER INSTITUTE, INC., priority 2018, dated 2026)
